# Patent EP3895686A1, “NATURAL COMPOSITION FOR HAIR GROWTH STIMULATION AND HAIR LOSS PREVENTION AND TREATMENT” (FRAUNHOFER-GESELLSCHAFT zur Förderung der angewandten …, priority 2020, dated 2021)
# Columns and labels:
# Type in all cases: cell-based
# [1] = test system: Human Follicle Dermal Papilla Cells (HFDPC); assay: Assessment of cell morphology by phase contrast microscopy; settings: for cell adherence and proliferation (summary of morphology): diosgenin concentration-dependent
# Protocol: (§1) First, Human Follicle Dermal Papilla Cells (HFDPC) cells were thawed and seeded into collagen-coated cell culture flasks (T25). Then the medium was changed every 48 h. After 4 days the cells were trypsinized and seeded in T75 cell culture flask. In preparation for the final experiment, the cells were trypsinized and then counted with a cell counter. The cell concentration was then adjusted in a defined amount of medium followed by seeding of the cells in 96-well plates for the subsequent cell impedance measurements (5000 cells per well) or in 24-well plates (20000 cells per well). Subsequently, the cells were cultivated for 7 days in pure culture medium with regular medium changes after 2-3 days. After 7 days, the medium with the additives listed in Table 1 was added (designated as day 0), followed by a 3-week cultivation of the cells. The medium (and addition of fresh active substances) was changed every 2-3 days. […] The following examinations were carried out after 7, 14 and 21 days.
# Cell morphology was assessed through microscopic examination of the cells with an inverted microscope (phase contrast microscopy) at 10x and 20x primary magnification. The morphology of the cells provides information on the adherence behaviour of the cells,possible cell activation and cell stress. This examination was carried out on a 24-well scale.
# [2] = test system: Human Follicle Dermal Papilla Cells (HFDPC); assay: VEGF-ELISA (VEGF secretion)
# Protocol: VEGF belongs to the signal molecules and stimulates the proliferation and migration of HFDPC. HFDPC generate more VEGF in the anagen phase. Thus, VEGF is an indication of the anagen phase of a hair. The detection of the VEGF protein was performed with the Human VEGF ELISA Kit from Invitrogen. The procedure was performed according to the protocol contained in the test kit with the cell supernatants previously frozen at -80°C. The removal of the cell culture supernatants was carried out on a 24-well scale. A higher value for the VEGF [pg/ml] (y-axis) means a higher value of detected VEGF. A higher VEGF value is an indication for a longer anagen phase. A longer anagen phase is an indication for more hair growth.
# as §1
# VEGF belongs to the signal molecules and stimulates the proliferation and migration of HFDPC. HFDPC generate more VEGF in the anagen phase. Thus VEGF is an indication of the anagen phase of a hair. […] The detection of the VEGF protein was performed with the Human VEGF ELISA Kit from invitrogen. The procedure was performed according to the protocol contained in the test kit with the cell supernatants previously frozen at -80°C. The removal of the cell culture supernatants was carried out on a 24-well scale.
# VEGF was analyzed in the cell culture supernatant to check whether the active ingredients have an influence on cell function and, if so, whether they promote the release of VEGF (see figure).
# [3] = test system: Human Follicle Dermal Papilla Cells (HFDPC); assay: Cell count after trypsination; settings: for cell number compared to untreated cells: depending on concentration and time; for influence on the cell count (conclusion): over 3 weeks
# Protocol: as §1
# This investigation was performed on a 24-well scale.
# To perform this investigation 5000 cells per well were seeded in the 96-wells with the addition of a maximum of 200 µl medium. The cells were grown for 7 days in pure cell culture medium. The medium was changed every 2-3 days, whereby 100 µl of old medium was removed and replaced by 100 µl of new medium. After 7 days the "pure" cell culture medium was completely removed and medium with the respective additives was added. The cells were then cultivated for 3 weeks with regular replacement of the medium with the respective additives. Cell counting after trypsinizing: The exact cell count of HFDPC was determined after trypsination of the cells in the respective well and uptake of the resulting cell pellets in medium. All pellets of one sample were combined in a cell culture vessel and then counted with a cell counter.
# [4] = test system: Human Follicle Dermal Papilla Cells (HFDPC); assay: Immunofluorescent staining of vimentin; settings: 2c (higher concentration)
# [5] = test system: Human Follicle Dermal Papilla Cells (HFDPC); assay: Cell impedance test on proliferation and toxicity (xCELLigence, cell index)
# Protocol: The influence of various substances on the growth of HDPFC was investigated with the aid of a cell impedance device (xCELLigence® RTCA DP).
# To perform this study 5000 HFDPC (Passage: 5) per well were seeded in the 16-well wells, coated on 50 µL collagen with the addition of a maximum of 200 µl medium. The cells were grown for 96 h in pure cell culture medium. After 96 h the "pure" cell culture medium was completely removed and medium with the respective additives was added. A further change with the respective additives took place after 48 h.
# The CI (y-axis) is thus a measure of cell proliferation, cell morphology and cell vitality (only vital, adherent HFDPC can proliferate) overtime (x-axis).
# The investigation of cell proliferation (cell index CI) or the exact determination of the cell number was carried out in order to detect a possible cytotoxic effect of the substances after addition to the cells. At the beginning of the experiment, the cells were confluently seeded in order to be able to " focus " on the induction of hair growth afterwards.
# The influence of various substances on the growth of HDPFC was investigated with the aid of a cell impedance device (xCELLigence® RTCA DP). The xCELLigence® system consists of a measuring unit and software that allows to follow the cell invasion and migration in real time without the influence of additional substances for cell visualization, which could potentially have an impact on the cells. The system measures the electrical impedance via microelectrodes integrated on the bottom of the tissue culture E-plate. It enables the monitoring of changes in adhesion, spreading and proliferation of different cell types in real time, based on the measured cell-electrode impedance. […] This index is composed as follows: CI = (Rtn −Rt0)/(Fi) [formula]
# Rtn and Rt0 are the frequency-dependent electrode resistances (a component of the impedance), where Rt0 is measured at time T0 (without cells) and Rtn with cells present. Fi depends on the frequency used in the measurement. Thus CI is a quantitative measure of the number of cells in an electrode-containing well, when comparing the same cell types. Under the same physiological conditions, more cells adhered to the electrodes result in a higher Rtn value, which leads to a higher value for CI. In the absence of living cells (cell culture medium only) or in a suspension of dead cells, the cell index values are close to zero. After cellular attachment to the electrode, the measurement signal correlates linearly with the cell count throughout the experiment. This investigation was performed on a 96-well scale. To perform this study 5000 HFDPC (Passage: 5) per well were seeded in the 96-well wells, coated on 50 µL collagen with the addition of a maximum of 200 µl medium. The cells were grown for 96 h in pure cell culture medium. After 96 h the "pure" cell culture medium was completely removed and medium with the respective additives was added. A further change with the respective additives took place after 48 h. The CI is thus a measure of cell proliferation, cell morphology and cell vitality (only vital, adherent HFDPC can proliferate). (FIG 11)
# [6] = 1c (lower concentration), after 3 weeks
# [7] = one week after addition of the active ingredients
# [8] = 250 µg/mL in medium, first 24 hours after addition
smiles,measurement,setting,value
"CCCCC/C=C\C/C=C\C/C=C\C/C=C\CCCC(=O)[O-].[Na+] [arachidonate, Sodium Arachidonate]",cell morphology / confluence,[1]; second week of the experiment,almost the same morphology
same,cell density,"[1]; second week, higher concentration",higher cell density
same,VEGF release,[2]; [6],lower VEGF release
same,cell count,"[3]; after 3 weeks, higher concentration, compared to untreated cells",increase in HFDPC
same,cell count,"[3]; entire duration of the experiment, independent of time and concentration",did not negatively affect the cell count
same,cell count,[3]; over 2 weeks,remained constant
same,cell spreading and attachment to the cell culture substrate (vimentin staining),[4],able to clearly spread and attach to the cell culture substrate
same,cell index,[5]; 50 µg/mL in medium,increase the cell index
same,toxic effect on the cells,[5]; 50 µg/mL in medium,does not have a toxic effect
same,toxic effect on the cells,[5]; 100µg/mL in medium,has a toxic effect
"C[C@@H]1CC[C@@]2(OC1)O[C@H]1C[C@H]3[C@@H]4CC=C5C[C@@H](O)CC[C@]5(C)[C@H]4CC[C@]3(C)[C@H]1[C@@H]2C [diosgenin, Diosgenin]",cell morphology / confluence,"[1]; after 3 weeks, lower concentration",resembled untreated cells
same,cell adherence and proliferation (summary of morphology),[1]; after 3 weeks,very beneficial for cell adherence and proliferation
same,cell morphology / confluence,[1]; [7],greater confluence
same,cell morphology / confluence,[1]; second week of the experiment,"very high confluence in the well and elongated, typical growth"
same,VEGF release,"[2]; 1c (lower concentration), after 1 week",lower VEGF release
same,VEGF release,[2]; [6],lower VEGF release
same,number of HDFPC over time,[3]; 1c,"remained constant after addition of Diosgenin 1c, but was increased compared to untreated cells"
same,cell number over time,"[3]; 2c, compared to untreated and Diosgenin 1c treated cells",significant increase in cell number
same,cell number compared to untreated cells,[3],positive influence on the cell number
same,influence on the cell count (conclusion),[3],positive influence on the cell count
same,cell spreading and attachment to the cell culture substrate (vimentin staining),[4],able to clearly spread and attach to the cell culture substrate
same,toxic effect on the cells,[5]; measured maximum concentration of 500 µg/mL,not toxic
"CCCCCC[C@@H](O)C/C=C\CCCCCCCC(=O)O [ricinoleic acid, 12-hydroxy-9-cis-octadecenoic acid]",cell morphology / confluence,"[1]; after 3 weeks, both concentrations","confluent, very dense monolayer and an elongated cell shape"
same,cell adherence and proliferation (summary of morphology),[1]; after 3 weeks,very beneficial for cell adherence and proliferation
same,cell morphology / confluence,[1]; [7],greater confluence
same,cell morphology / confluence,[1]; second week of the experiment,"very high confluence in the well and elongated, typical growth"
same,VEGF release,"[2]; 2.c (higher concentration), after 3 weeks",lower VEGF release
same,cell count,"[3]; after 1 week, compared to untreated cells",the difference was visible in both treated groups compared to untreated cells
same,cell number compared to untreated cells,[3],significant increase in cell count
same,influence on the cell count (conclusion),[3],positive influence on the cell count
same,cell index,"[5]; 100µg/mL, after 24 h and 48 h addition",remained constant
same,cell index,[5]; [8],positive influence on the cell index
same,toxic effect on the cells,[5]; [8],does not appear to have a toxic effect
same,cell index,"[5]; 250 µg/mL, after 48h of repeated addition",decreases
